In US8741319B2, “Methods and compositions for treating anxiety disorders or symptoms thereof” (Pondera Biotechnologies Inc., priority 2009, dated 2014):
“Also recorded” adds a separate entry of the source.

Columns and labels:
[1] = tested on: patients in psychotherapy suffering from various Distress Dysfunction conditions; experiment: 10 month trial, agents alone vs combined, 19 psychotherapy patients (Example 5); conditions: for therapeutic benefits on Distress Dysfunction symptoms: 19 patients, 2 weeks per agent or formulation, agents not identified to patients
Method: To determine the relative benefits of administering agents alone as compared to their combined synergistic benefits, a trial was conducted over a 10 month period with 19 patients in psychotherapy suffering from various Distress Dysfunction conditions, including anxiety, obsessive-compulsive disorders, depression, drug and alcohol addictions, behavioral addictions, psychogenic and neuropathic pain, eating disorders, and sexual dysfunctions.
Over the course of 8 weeks, each patient was administered all of the individual agents. During the next 8 weeks, each patient rotated through the following formulations, each given for a 2 week period: […]
All patients already on an SSRI or SNRI continued on this medication in combination with ULDN.

[2] = tested on: outpatient psychotherapy patients with various forms of Distress Dysfunction; experiment: Clinical case studies, outpatient psychotherapy patients (Example 8B); format: in vivo, human; conditions: 5 or 125 μg once daily within formulations
Method: All treatment was unblinded, and explained as novel formulations for Distress Dysfunction. […] Synergistic Enhancers were often included in the formulations, particularly SSRI and SNRI medications that the patients were typically taking prior to adding the experimental formulations (about 25% of patients). For those patients already on an SSRI or SNRI, the following daily doses were used, once the patient was stabilized on the co-treatment formulation: escitalopram (10 mg, once daily), fluoxetine (20 mg, once daily), citalopram (20 mg, once daily), or venlafaxine (75 mg, once daily). For most patients, this was either the same or lower dose than previously prescribed. If the patient was not already on an SSRI or SNRI, one or more Synergistic Enhancers were added to the formulation for more serious conditions, including 5HTP (50 mg, twice daily), SAMe (200 mg, once daily), PharmaGABA (200 mg, once daily), and tyrosine (500 mg, once daily) (about 18% of patients). Ten pain patients began the treatment program using a prescription narcotic pain medication. […] As an alternative to narcotic pain medications, NSAIDs, especially white willow bark (250 mg, twice daily) were added to the formulation (about 10% of patients). […]

humans = experiment: Hot-water finger-immersion induced pain trials (Example 1); format: in vivo, human; conditions: for side effects / complaints, second phase: 60 subjects, caffeine 50 mg, theophylline 300 mg, ULDN 5 μg, magnesium sulfate 750 mg, alone or combined; for undesirable side effects, first phase: 18 subjects, rolipram 50 μg, forskolin 200 mg, magnesium sulfate 2 g/5 g, caffeine 200 mg, each given within two-agent formulations; for pain thresholds and tolerance as compared to baseline latencies: index finger in 130° F. water, single dose, not blinded as to condition
Method: For these trials, a hot-water finger-immersion pain paradigm was used, measuring both pain threshold and tolerance. The index finger of the non-dominant hand was submerged in 130° F. water, and the time to the experience of pain (threshold) and the need to withdraw (tolerance) were measured. Baseline scores were compared to those obtained under experimental conditions. Experimental conditions were not blinded for this study.
For the preliminary part of this study, 18 subjects (10 males, 8 females; ages 27-86) were given each of the following single-dose formulations on separate days, to determine the best doses for pain reduction and side-effect profiles:
The same induced pain paradigm was used for the second phase of this study. 60 subjects (38 males, 22 females, ages 18-86), including all of the subjects in the first phase of the study, participated in the study. All subjects were administered each of the following formulations in a single dose, on separate days; while 18 of these subjects (10 males, 8 females) were given these formulations using a twice daily administration over the course of 3 consecutive days. The following formulations were administered to each subject to assess the effect of each agent, as compared to baseline, as well as the synergistic impact of co-treatment: […]

Healthy volunteers = experiment: Cold-pressor induced pain study (Example 8A); format: in vivo, human; conditions: 12 subjects, blinded, within-subject
Method: In addition to the hot-water finger immersion studies described above, two Jeio Tech cold-pressor testing units were purchased since this methodology represents the state-of-the art in induced pain research.
Following several preliminary multi-site trials using a wide variety of agents, doses, and formulations, a cold-pressor induced pain study was conducted in order to determine the impact of specific agents on the experience of pain threshold and tolerance. Healthy volunteers were recruited who were not taking any relevant medications or supplements, resulting in a total of 12 subjects (7 men, 5 women; ages 18-86). During the initial phase of this study, the following agents and doses were administered to subjects and pain threshold and tolerance latencies were assessed. […] Subjects were blinded as to each condition. Active agents were compared to each subject's baseline and placebo latencies, using a within-subject design. […]

subjects = experiment: Hot-water finger-immersion pain threshold/tolerance, five subjects (Example 4); format: in vivo, human; conditions: separate testing sessions
males with ADHD = experiment: Attention-Deficit Disorder case studies (Example 10); format: in vivo, human; conditions: for improvement of ADHD behavior and attention: single case studies (males)
Method: To assess the therapeutic benefit of the novel cotreatment formulations of the invention with Attention-Deficit Disorders, three ongoing case studies are being conducted, one focused on the use of stimulants and the other based on “nutriceuticals.”
A person with severe uncontrolled ADHD has had serious problems with their inappropriate behaviors, emotions, and attitudes, both at school and at home, for more than 8 years. […] NAC (600 mg, twice daily) was added to the ongoing medication. […] The young person was able to sit quietly for longer periods of time and was clearly more cooperative and socially appropriate. […] Increased improvement has been observed over the past month, and the cotreatment formulation is being continued.
A person with moderate ADHD has had difficulties paying attention at school and cooperating at home. They have never been given prescription medications for the problem, and behavioral interventions have not been successful. […] Then, NAC (600 mg, twice daily), magnesium sulfate (500 mg, twice daily), and ginkgo biloba (120 mg, once daily) were added to the ALC. […] Progress has been steadily improving, using this novel cotreatment formulation during this 3 week trial, which is ongoing.
A person with severe ADHD has had problems in all aspects of their life due to this disorder. Despite above average intelligence, they were unable to complete high school. After dropping out of school, they were able to earn a GED. Over time, they were unable to hold regular employment. […] They will continue this co-treatment formulation, given its obvious benefits.

For `O=C1CC[C@@]2(O)[C@H]3Cc4ccc(O)c5c4[C@@]2(CCN3CC2CC2)[C@H]1O5` [ULDN, naltrexone], the “therapeutic benefits on Distress Dysfunction symptoms” value (shortened to “therapeutic benefits”) ([1]; once daily) was “nearly half of the patients experienced no effect from ULDN alone”, the “improvement in symptoms in patients on ongoing SSRI or SNRI medication” value ([1]; ULDN 5 μg added, patients on Lexapro, Prozac, Paxil or Effexor) was 10 patients had dramatic improvement in their symptoms and the “consistency of benefit by naltrexone dose” value [2] was “the benefits from using the relatively higher dose (125 micrograms) were more consistent within and among patients”. For the same molecule, the “side effects / complaints, second phase” value (humans) was “had neither benefit nor side effects”.
In the case of `O=C(Nc1c(Cl)cncc1Cl)c1ccc(OC(F)F)c(OCC2CC2)c1` [roflumilast], the “therapeutic benefits” value ([1]; once daily) is reported as “no therapeutic benefits were reported or observed”, the increased distress symptoms ([1]; human, in vivo) is reported as “at least half of the patients reported some degree of increased distress symptoms” and the “pain threshold and tolerance latencies vs baseline and placebo, agents administered alone” value (Healthy volunteers) is reported as “showed clear hyperalgesic effects when administered alone; also recorded: tended to result in shorter pain tolerance latencies”.
`CC(=O)Oc1ccccc1C(=O)O` [aspirin] was tested, and the “increase in pain threshold/tolerance (over baseline)” value (subjects) was “showed no change in pain threshold when administered alone” and the “pain threshold and tolerance latencies vs baseline and placebo, agents administered alone” value (Healthy volunteers) was “no more effective than placebo in the cold pressor paradigm”.
With `COc1ccc(C2CNC(=O)C2)cc1OC1CCCC1` (centres unmarked) [Rolipram, rolipram] the “undesirable side effects, first phase” value (humans) was “produced a queasy sensation for several of the subjects” and the side effects (humans; one subject took 250 μg of rolipram) was “experienced nausea, vomiting, and diarrhea”.
In the case of `CC(=O)O[C@H](CC(=O)[O-])C[N+](C)(C)C` [acetyl-L-carinitine], the “improvement of ADHD behavior and attention” value (males with ADHD) is reported as “no observable benefits”.
In the case of `C=C[C@@]1(C)CC(=O)[C@]2(O)[C@@]3(C)[C@@H](O)CCC(C)(C)[C@@H]3[C@H](O)[C@H](OC(C)=O)[C@@]2(C)O1` [Forskolin], the “undesirable side effects, first phase” value (humans) is reported as “produced mild agitation for several subjects”.
In the case of `COC(=O)C(c1ccccc1)C1CCCCN1` (centres unmarked) [methylphenidate], the side effects (males with ADHD; single case studies) is reported as “produced mild restlessness, sleep difficulties, and reduced appetite; also recorded: several undesirable side-effects, including insomnia, anorexia, and agitation” and the “improvement of ADHD behavior and attention” value (males with ADHD) is reported as “only modest improvements; also recorded: almost no benefit”.
With `CC(C)Cc1ccc(C(C)C(=O)O)cc1` (centres unmarked) [ibuprophen] the “pain threshold and tolerance latencies vs baseline and placebo, agents administered alone” value (Healthy volunteers) was “no more effective than placebo in the cold pressor paradigm”.
With `Cn1c(=O)c2[nH]cnc2n(C)c1=O` [theophylline] the “pain threshold and tolerance latencies vs baseline and placebo, agents administered alone” value (Healthy volunteers) was “tended to result in shorter pain tolerance latencies”, the “side effects / complaints, second phase” value (humans) was “complained of these symptoms when given these drugs alone” and the “pain thresholds and tolerance as compared to baseline latencies” value (humans) was “trend toward increased pain sensitivity (hyperalgesia)”.
`Cn1c(=O)c2c(ncn2C)n(C)c1=O` [caffeine] was tested, and the increased distress symptoms ([1]; agent administered alone, once daily, 2 weeks) was “at least half of the patients reported some degree of increased distress symptoms”, the “pain threshold and tolerance latencies vs baseline and placebo, agents administered alone” value (Healthy volunteers) was “tended to result in shorter pain tolerance latencies” and the “undesirable side effects, first phase” value (humans) was “produced mild agitation for several subjects”. The “side effects / complaints, second phase” value (humans) was “complained of these symptoms when given these drugs alone” and the “pain thresholds and tolerance as compared to baseline latencies” value (humans) was “trend toward increased pain sensitivity (hyperalgesia)”.
`COc1ccc2c3c1O[C@H]1C(=O)CC[C@@]4(O)[C@@H](C2)N(C)CC[C@]314` [oxycodone (5 mg), oxycodone] was tested, and the “pain threshold and tolerance latencies vs baseline and placebo, agents administered alone” value (Healthy volunteers) was “consistently showed this effect” and the “pain threshold and tolerance latencies vs baseline and placebo, agents administered alone” value (Healthy volunteers; listed as lower dose oxycodone) was “did not generally exhibit analgesia on the cold pressor”.
With `COc1cccc(C2(O)CCCCC2CN(C)C)c1` (centres unmarked) [Tramadol, tramadol] the “pain threshold and tolerance latencies vs baseline and placebo, agents administered alone” value (Healthy volunteers) was “did not generally exhibit analgesia on the cold pressor”.
In the case of `CC(=O)Nc1ccc(O)cc1` [acetaminophen], the “therapeutic benefits” value ([1]; once daily) is reported as “no therapeutic benefits were reported or observed”, the “maintenance treatment, remaining six months of the study” value ([1]; each patient on the formulation that worked best) is reported as “used effectively by four pain patients” and the increased distress symptoms ([1]; human, in vivo) is reported as “at least half of the patients reported some degree of increased distress symptoms”. For the same molecule, the “increase in pain threshold/tolerance (over baseline)” value (subjects) was “in order of greatest pain relief, was (3), then (2) then (1)” and the “pain threshold and tolerance latencies vs baseline and placebo, agents administered alone” value (Healthy volunteers) was “no more effective than placebo in the cold pressor paradigm”.
For `O=S(=O)([O-])[O-].[Mg+2]` [magnesium sulfate], the “undesirable side effects, first phase” value (humans) was “produced mild queasy feelings for several subjects” and the “side effects / complaints, second phase” value (humans) was “had neither benefit nor side effects”.
In the case of `N[C@@H](CCC(=O)O)C(=O)O` [glutamic acid], the “pain threshold and tolerance latencies vs baseline and placebo, agents administered alone” value (Healthy volunteers) is reported as “showed clear hyperalgesic effects when administered alone; also recorded: tended to result in shorter pain tolerance latencies”.
